Source: US8722712B2, “Substituted aryl 1 ,2,4-oxadiazoles derivatives as sphingosine-1 phosphate receptors modulators” (Allergan, Inc., priority 2012, dated 2014)

These compounds were tested against T1, human S1P1 receptor (Homo sapiens, UniProt P21453) (assay: GTP γ35S binding assay for S1P1 activity). Settings: membranes of cells stably expressing the S1P1 receptor, test compounds 0.08 to 5,000 nM.
T1 construct: expressed in transfected cells; membranes used
T1 sequence (P21453 whole entry): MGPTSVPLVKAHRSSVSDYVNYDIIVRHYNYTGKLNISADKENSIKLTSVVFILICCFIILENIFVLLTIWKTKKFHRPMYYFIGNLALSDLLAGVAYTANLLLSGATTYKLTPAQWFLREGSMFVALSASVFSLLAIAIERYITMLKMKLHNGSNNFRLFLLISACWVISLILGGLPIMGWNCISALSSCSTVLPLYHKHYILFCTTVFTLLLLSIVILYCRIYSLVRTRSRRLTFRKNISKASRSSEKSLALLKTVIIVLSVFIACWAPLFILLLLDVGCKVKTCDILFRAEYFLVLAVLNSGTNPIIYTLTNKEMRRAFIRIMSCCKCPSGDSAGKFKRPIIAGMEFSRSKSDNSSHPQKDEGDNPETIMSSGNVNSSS
Format: biochemical
Procedure: Compounds were synthesized and tested for S1P1 activity using the GTP γ^355 binding assay. These compounds may be assessed for their ability to activate or block activation of the human S1P1 receptor in cells stably expressing the S1P1 receptor.
[…] binding was measured in the medium containing (mM) HEPES 25, pH 7.4, MgCl2 10, NaCl 100, dithitothreitol 0.5, digitonin 0.003%, 0.2 nM GTP γ^35S, and 5 μg membrane protein in a volume of 150 μl. Test compounds were included in the concentration range from 0.08 to 5,000 nM unless indicated otherwise. Membranes were incubated with 100 μM 5′-adenylylimmidodiphosphate for 30 min, and subsequently with 10 μM GDP for 10 min on ice. Drug solutions and membrane were mixed, and then reactions were initiated by adding GTP γ^35S and continued for 30 min at 25° C. Reaction mixtures were filtered over Whatman GF/B filters under vacuum, and washed three times with 3 mL of ice-cold buffer (HEPES 25, pH7.4, MgCl2 10 and NaCl-100). Filters were dried and mixed with scintillant, and counted for ^35S activity using a […]. Agonist-induced GTP γ^35S binding was obtained by subtracting that in the absence of agonist. Binding data were analyzed using a non-linear regression method. In case of antagonist assay, the reaction mixture contained 10 nM […] in the presence of test antagonist at concentrations ranging from 0.08 to 5000 nM.
For `O=C(O)CCNCc1ccc(-c2noc(CCCCc3ccccc3)n2)cc1` [3-({4-[5-(4-Phenylbutyl)-1,2,4-oxadiazol-3-yl]benzyl}amino)propanoic acid], the EC50 was 606 nM.
In the case of `CCc1cc(-c2noc(CCCCc3ccccc3)n2)ccc1CNCCCP(=O)(O)O` [Compound 1, [3-({2-Ethyl-4-[5-(4-phenylbutyl)-1,2,4-oxadiazol-3-yl]benzyl}amino)propyl]phosphonic acid], the EC50 is reported as 79.2 nM.
With `O=P(O)(O)CCCNCc1ccc(-c2noc(CCCCc3ccccc3)n2)c(F)c1` [Compound 2, [3-({3-Fluoro-4-[5-(4-phenylbutyl)-1,2,4-oxadiazol-3-yl]benzyl}amino)propyl]phosphonic acid] the EC50 was 23.8 nM.
Work on `O=P(O)(O)CCCNCc1ccc(-c2noc(CCCCc3ccccc3)n2)c(Br)c1` [Compound 3, [3-({3-Bromo-4-[5-(4-phenylbutyl)-1,2,4-oxadiazol-3-yl]benzyl}amino)propyl]phosphonic acid] yielded an EC50 of 16.9 nM.
`O=P(O)(O)CCCNCc1ccc(-c2noc(CCCCc3ccccc3)n2)cc1` [Compound 4, [3-({4-[5-(4-Phenylbutyl)-1,2,4-oxadiazol-3-yl]benzyl}amino)propyl]phosphonic acid] showed an EC50 of 63.1 nM.
In the case of `O=P(O)(O)CCCNCc1ccc(-c2noc(CCCCc3ccccc3)n2)c(-c2ccco2)c1` [Compound 7, [3-({3-(2-Furyl)-4-[5-(4-phenylbutyl)1,2,4-oxadiazol-3-yl]benzyl}amino)propyl]phosphonic acid], the EC50 is reported as 217 nM.
